Results from ChEMBL document CHEMBL1158421, “Inhibitory effect of a dimerization-arm-mimetic peptide on EGF receptor activation” (Bioorg Med Chem Lett, 2009).
The source made the active and inactive calls. The calls are words filed in the database; no cut-off is given here. Where a SMILES comes first, the peptide text is derived from it. Bridges are numbered along the chain shown (N, C = ends).

Legend:
Assay type in all cases: cell-based
Conditions in all cases: A-431
[1] = target: Epidermal growth factor receptor (Homo sapiens) (UniProt P00533); assay: Inhibition of EGF-induced dimerization of human EGFR in A431 cells at >1 uM preincubated for 30 mins before EGF challenge by SDS-PAGE
[2] = target: Epidermal growth factor receptor (Homo sapiens) (UniProt P00533); assay: Inhibition of EGF-stimulated human EGFR in intact A431 cells assessed as suppression of residual autophosphorylation at 0.1 uM preincubated for 3 hrs before EGF challenge by SDS-PAGE relative to control
[3] = target: Epidermal growth factor receptor (Homo sapiens) (UniProt P00533); assay: Inhibition of EGF-stimulated human EGFR in intact A431 cells assessed as suppression of residual autophosphorylation at 10 uM preincubated for 3 hrs before EGF challenge by SDS-PAGE relative to control
[4] = target: Epidermal growth factor receptor (Homo sapiens) (UniProt P00533); assay: Inhibition of EGF-stimulated human EGFR in intact A431 cells assessed as suppression of residual autophosphorylation at 1 uM preincubated for 3 hrs before EGF challenge by SDS-PAGE relative to control
[5] = target: Epidermal growth factor receptor (Homo sapiens) (UniProt P00533); assay: Reduction in EGF-induced dimerization of human EGFR in A431 cells at 1 uM preincubated for 30 mins before EGF challenge by SDS-PAGE relative to control; set-up: scale not given: the % may be the effect or the level left
[6] = target: Epidermal growth factor receptor (Homo sapiens) (UniProt P00533); assay: Reduction in EGF-induced dimerization of human EGFR in A431 cells preincubated for 30 mins before EGF challenge by SDS-PAGE
[7] = target: Epidermal growth factor receptor (Homo sapiens) (UniProt P00533); assay: Reduction in EGF-induced dimerization of human EGFR in A431 cells at 0.01 to 1 uM preincubated for 30 mins before EGF challenge by SDS-PAGE

Chain of Epidermal growth factor receptor (Homo sapiens) (P00533 whole entry): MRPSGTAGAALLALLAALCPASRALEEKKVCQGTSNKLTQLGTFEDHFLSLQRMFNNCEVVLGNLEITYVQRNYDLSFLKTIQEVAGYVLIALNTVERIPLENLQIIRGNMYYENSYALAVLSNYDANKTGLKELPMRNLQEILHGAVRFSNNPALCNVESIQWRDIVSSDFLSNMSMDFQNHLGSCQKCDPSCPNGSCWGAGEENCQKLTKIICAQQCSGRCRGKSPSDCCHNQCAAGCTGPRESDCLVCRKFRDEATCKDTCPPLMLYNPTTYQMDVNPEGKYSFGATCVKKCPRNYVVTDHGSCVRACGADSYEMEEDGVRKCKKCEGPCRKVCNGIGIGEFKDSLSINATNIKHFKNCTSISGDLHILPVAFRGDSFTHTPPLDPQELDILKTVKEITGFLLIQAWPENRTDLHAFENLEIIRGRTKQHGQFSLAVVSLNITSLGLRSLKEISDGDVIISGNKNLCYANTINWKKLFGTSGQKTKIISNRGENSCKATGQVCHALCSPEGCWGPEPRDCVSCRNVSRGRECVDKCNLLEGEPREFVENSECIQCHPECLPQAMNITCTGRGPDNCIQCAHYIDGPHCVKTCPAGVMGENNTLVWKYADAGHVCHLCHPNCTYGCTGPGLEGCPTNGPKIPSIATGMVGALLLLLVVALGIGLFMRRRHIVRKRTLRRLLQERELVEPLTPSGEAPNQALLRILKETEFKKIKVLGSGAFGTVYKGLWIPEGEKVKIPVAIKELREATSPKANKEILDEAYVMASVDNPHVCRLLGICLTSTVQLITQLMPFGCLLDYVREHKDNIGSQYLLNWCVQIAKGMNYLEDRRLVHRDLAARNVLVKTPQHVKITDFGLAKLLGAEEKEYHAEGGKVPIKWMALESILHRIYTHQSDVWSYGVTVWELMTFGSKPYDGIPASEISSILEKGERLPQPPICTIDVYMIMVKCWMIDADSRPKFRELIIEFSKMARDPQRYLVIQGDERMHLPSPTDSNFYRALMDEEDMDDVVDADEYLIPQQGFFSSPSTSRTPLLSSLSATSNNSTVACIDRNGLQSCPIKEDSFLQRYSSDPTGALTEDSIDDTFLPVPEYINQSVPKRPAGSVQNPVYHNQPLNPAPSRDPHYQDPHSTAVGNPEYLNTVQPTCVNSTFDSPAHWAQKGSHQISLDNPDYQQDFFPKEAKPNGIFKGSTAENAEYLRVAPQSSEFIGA

| Activity [1] | Activity [2] [%] | Activity [3] [%] | Activity [4] [%] | Activity [5] [%] | Activity [6] | Activity [7] | SMILES |
| --- | --- | --- | --- | --- | --- | --- | --- |
| inactive | 61 | 30 | 51 | < 80 | Dose-dependent effect | – | CSCC[C@@H]1NC(=O)[C@H](CCC(N)=O)NC(=O)[C@H](Cc2ccc(O)cc2)NC(=O)[C@H]([C@@H](C)O)NC(=O)[C@H]([C@@H](C)O)NC(=O)[C@@H]2CCCN2C(=O)[C@H](CC(N)=O)NC(=O)[C@H](Cc2ccc(O)cc2)NC(=O)[C@@H](N)CSSC[C@@H](C(=O)O)NC1=O (H-CYNPTTYQMC-OH; disulfide 1-10) |
| – | – | – | – | – | – | inactive | CSCC[C@H](NC(=O)[C@H](CCC(N)=O)NC(=O)[C@H](Cc1ccc(O)cc1)NC(=O)[C@@H](NC(=O)[C@@H](NC(=O)[C@@H]1CCCN1C(=O)[C@H](CC(N)=O)NC(=O)[C@H](Cc1ccc(O)cc1)NC(=O)[C@@H](N)CS)[C@@H](C)O)[C@@H](C)O)C(=O)N[C@@H](CS)C(=O)O (H-CYNPTTYQMC-OH) |
